According to article PMC6891286, “Towards the Development of an In vivo Chemical Probe for Cyclin G Associated Kinase (GAK)” (Molecules, 2019):

Tests used:
Experiment in all cases: KINOMEscan
Format in all cases: binding
Conditions in all cases: 35 at 1 µM; read-out: % inhibition
LCK = molecular target: T1, LCK (Homo sapiens, UniProt P06239)
T1 construct: purchased Eurofins DiscoverX (KINOMEscan)
Protocol: (§1) KinomeScan Assay on 35 was performed as previously described at EuroFins DiscoverX (Fremont, CA, USA).

ABL1-nonphosphorylated = molecular target: T2, ABL1-nonphosphorylated (Homo sapiens, UniProt P00519)
T2 construct: purchased Eurofins DiscoverX (KINOMEscan)
Protocol: as §1

BUB1 = molecular target: T3, BUB1 (Homo sapiens, UniProt O43683)
T3 construct: purchased Eurofins DiscoverX (KINOMEscan)
Protocol: as §1

FLT3(R834Q) = molecular target: T4, FLT3(R834Q) (Homo sapiens, UniProt P36888, R834Q)
T4 construct: purchased Eurofins DiscoverX (KINOMEscan)
Protocol: as §1

PIK3CA(M1043I) = molecular target: T5, PIK3CA(M1043I) (Homo sapiens, UniProt P42336, M1043I)
T5 construct: purchased Eurofins DiscoverX (KINOMEscan)
Protocol: as §1

KIT(D816V) = molecular target: T6, KIT(D816V) (Homo sapiens, UniProt P10721, D816V)
T6 construct: purchased Eurofins DiscoverX (KINOMEscan)
T6 sequence (P10721 26-976 D816V): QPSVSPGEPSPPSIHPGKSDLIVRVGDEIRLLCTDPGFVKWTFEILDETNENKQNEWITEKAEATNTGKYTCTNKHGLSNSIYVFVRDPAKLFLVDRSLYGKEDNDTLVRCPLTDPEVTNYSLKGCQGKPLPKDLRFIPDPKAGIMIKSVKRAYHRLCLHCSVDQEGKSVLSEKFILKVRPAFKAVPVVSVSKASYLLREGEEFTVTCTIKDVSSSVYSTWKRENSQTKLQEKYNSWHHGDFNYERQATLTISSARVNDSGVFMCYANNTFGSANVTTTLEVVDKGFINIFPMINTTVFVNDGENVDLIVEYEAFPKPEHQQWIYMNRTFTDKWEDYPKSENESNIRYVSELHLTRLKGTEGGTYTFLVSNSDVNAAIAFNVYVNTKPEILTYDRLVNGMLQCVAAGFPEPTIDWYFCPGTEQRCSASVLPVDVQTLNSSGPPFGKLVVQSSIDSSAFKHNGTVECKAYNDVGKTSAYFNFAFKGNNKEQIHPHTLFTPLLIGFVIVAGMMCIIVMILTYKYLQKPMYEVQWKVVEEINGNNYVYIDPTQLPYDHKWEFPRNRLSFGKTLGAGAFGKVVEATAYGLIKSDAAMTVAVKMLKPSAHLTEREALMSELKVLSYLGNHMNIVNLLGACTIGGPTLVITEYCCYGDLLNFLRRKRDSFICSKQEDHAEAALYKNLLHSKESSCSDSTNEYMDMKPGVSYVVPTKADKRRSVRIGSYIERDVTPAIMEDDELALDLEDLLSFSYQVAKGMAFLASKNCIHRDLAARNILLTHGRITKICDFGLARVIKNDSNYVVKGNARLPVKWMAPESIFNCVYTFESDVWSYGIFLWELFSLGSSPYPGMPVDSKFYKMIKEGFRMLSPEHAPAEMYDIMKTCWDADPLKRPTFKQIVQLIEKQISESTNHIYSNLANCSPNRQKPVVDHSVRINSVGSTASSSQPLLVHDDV
Protocol: as §1

[1] = molecular target: T7, EGFR(L747-S752del, P753S) (Homo sapiens, UniProt P00533, DEL747-752/P753S)
T7 construct: purchased Eurofins DiscoverX (KINOMEscan)
Protocol: as §1

[2] = molecular target: T8, ABL1(F317I)-nonphosphorylated (Homo sapiens, UniProt P00519, F317I)
T8 construct: purchased Eurofins DiscoverX (KINOMEscan)
Protocol: as §1

SIK = molecular target: T9, SIK (Homo sapiens, UniProt P57059)
T9 construct: purchased Eurofins DiscoverX (KINOMEscan)
Protocol: as §1

SRPK1 = molecular target: T10, SRPK1 (Homo sapiens, UniProt Q96SB4)
T10 construct: purchased Eurofins DiscoverX (KINOMEscan)
T10 sequence (Q96SB4 whole entry): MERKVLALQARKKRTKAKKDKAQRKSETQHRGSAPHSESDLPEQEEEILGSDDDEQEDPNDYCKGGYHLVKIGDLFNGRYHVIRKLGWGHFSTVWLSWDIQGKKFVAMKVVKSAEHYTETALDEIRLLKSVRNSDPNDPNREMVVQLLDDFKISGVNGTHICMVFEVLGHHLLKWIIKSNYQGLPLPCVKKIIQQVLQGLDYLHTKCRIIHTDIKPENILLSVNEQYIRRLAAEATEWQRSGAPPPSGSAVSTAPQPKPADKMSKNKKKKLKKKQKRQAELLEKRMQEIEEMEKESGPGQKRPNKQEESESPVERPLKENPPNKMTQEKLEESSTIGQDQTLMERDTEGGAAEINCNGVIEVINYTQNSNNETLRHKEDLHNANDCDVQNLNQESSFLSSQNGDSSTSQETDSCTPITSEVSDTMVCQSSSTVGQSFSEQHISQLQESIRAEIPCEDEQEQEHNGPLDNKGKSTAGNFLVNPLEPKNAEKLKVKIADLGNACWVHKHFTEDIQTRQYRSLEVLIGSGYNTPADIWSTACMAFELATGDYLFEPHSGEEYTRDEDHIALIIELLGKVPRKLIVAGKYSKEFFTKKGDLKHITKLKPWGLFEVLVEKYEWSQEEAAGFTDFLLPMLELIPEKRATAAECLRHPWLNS
Protocol: as §1

CSF1R-autoinhibited = molecular target: T11, CSF1R-autoinhibited (Homo sapiens, UniProt P07333)
T11 construct: purchased Eurofins DiscoverX (KINOMEscan)
Protocol: as §1

MLCK = molecular target: T12, MLCK (Homo sapiens, UniProt Q32MK0)
T12 construct: purchased Eurofins DiscoverX (KINOMEscan)
T12 sequence (Q32MK0 whole entry): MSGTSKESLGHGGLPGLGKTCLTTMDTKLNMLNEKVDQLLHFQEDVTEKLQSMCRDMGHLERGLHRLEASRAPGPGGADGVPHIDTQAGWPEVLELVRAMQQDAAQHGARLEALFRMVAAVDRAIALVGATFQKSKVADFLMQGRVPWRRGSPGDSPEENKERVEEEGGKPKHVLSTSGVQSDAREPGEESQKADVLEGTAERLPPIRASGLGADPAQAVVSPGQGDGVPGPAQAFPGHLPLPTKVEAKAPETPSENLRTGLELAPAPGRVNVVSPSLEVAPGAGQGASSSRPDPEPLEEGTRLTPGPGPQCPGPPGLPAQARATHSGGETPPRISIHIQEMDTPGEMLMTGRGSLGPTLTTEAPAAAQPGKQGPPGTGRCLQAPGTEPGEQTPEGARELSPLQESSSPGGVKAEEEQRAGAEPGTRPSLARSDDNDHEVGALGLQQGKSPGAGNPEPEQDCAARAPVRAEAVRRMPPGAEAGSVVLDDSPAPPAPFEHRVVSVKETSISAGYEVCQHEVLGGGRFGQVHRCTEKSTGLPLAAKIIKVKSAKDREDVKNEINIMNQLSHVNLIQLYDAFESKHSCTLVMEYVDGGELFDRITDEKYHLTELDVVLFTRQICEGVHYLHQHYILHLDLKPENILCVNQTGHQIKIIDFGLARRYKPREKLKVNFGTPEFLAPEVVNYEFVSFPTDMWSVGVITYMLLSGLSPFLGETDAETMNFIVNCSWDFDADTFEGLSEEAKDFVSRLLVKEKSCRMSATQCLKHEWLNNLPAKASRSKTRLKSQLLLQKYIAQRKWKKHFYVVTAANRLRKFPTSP
Protocol: as §1

EPHB3 = molecular target: T13, EPHB3 (Homo sapiens, UniProt P54753)
T13 construct: purchased Eurofins DiscoverX (KINOMEscan)
Protocol: as §1

SgK110 = molecular target: T14, SgK110 (Homo sapiens, UniProt P0C264)
T14 construct: purchased Eurofins DiscoverX (KINOMEscan)
Protocol: as §1

[3] = molecular target: T15, TYK2(JH2domain-pseudokinase) (Homo sapiens, UniProt P29597)
T15 construct: TYK2(JH2domain-pseudokinase); purchased Eurofins DiscoverX (KINOMEscan)
T15 sequence (P29597 556-888 limits assumed): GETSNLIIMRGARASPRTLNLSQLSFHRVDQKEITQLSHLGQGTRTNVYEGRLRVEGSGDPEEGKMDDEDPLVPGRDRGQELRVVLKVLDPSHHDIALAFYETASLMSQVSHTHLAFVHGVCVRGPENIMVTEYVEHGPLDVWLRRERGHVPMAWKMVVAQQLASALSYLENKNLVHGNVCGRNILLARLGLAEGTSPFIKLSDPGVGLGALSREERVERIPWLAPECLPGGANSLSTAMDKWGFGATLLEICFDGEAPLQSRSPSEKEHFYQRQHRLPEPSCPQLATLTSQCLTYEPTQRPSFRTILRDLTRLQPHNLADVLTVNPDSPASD
Protocol: as §1

DYRK2 = molecular target: T16, DYRK2 (Homo sapiens, UniProt Q92630)
T16 construct: purchased Eurofins DiscoverX (KINOMEscan)
Protocol: as §1

PIK3C2B = molecular target: T17, PIK3C2B (Homo sapiens, UniProt O00750)
T17 construct: purchased Eurofins DiscoverX (KINOMEscan)
Protocol: as §1

EGFR(G719C) = molecular target: T18, EGFR(G719C) (Homo sapiens, UniProt P00533, G719C)
T18 construct: purchased Eurofins DiscoverX (KINOMEscan)
Protocol: as §1

FGR = molecular target: T19, FGR (Homo sapiens, UniProt P09769)
T19 construct: purchased Eurofins DiscoverX (KINOMEscan)
Protocol: as §1

PDGFRA = molecular target: T20, PDGFRA (Homo sapiens, UniProt P16234)
T20 construct: purchased Eurofins DiscoverX (KINOMEscan)
Protocol: as §1

ULK1 = molecular target: T21, ULK1 (Homo sapiens, UniProt O75385)
T21 construct: purchased Eurofins DiscoverX (KINOMEscan)
Protocol: as §1

NEK4 = molecular target: T22, NEK4 (Homo sapiens, UniProt P51957)
T22 construct: purchased Eurofins DiscoverX (KINOMEscan)
Protocol: as §1

CDC2L5 = molecular target: T23, CDC2L5 (Homo sapiens, UniProt Q14004)
T23 construct: purchased Eurofins DiscoverX (KINOMEscan)
Protocol: as §1

CAMK1D = molecular target: T24, CAMK1D (Homo sapiens, UniProt Q8IU85)
T24 construct: purchased Eurofins DiscoverX (KINOMEscan)
Protocol: as §1

KIT(V559D,V654A) = molecular target: T25, KIT(V559D,V654A) (Homo sapiens, UniProt P10721, V559D/V654A)
T25 construct: purchased Eurofins DiscoverX (KINOMEscan)
T25 sequence (P10721 26-976 V559D/V654A): as the sequence (P10721 26-976 D816V) above, with V534D, V629A, V791D counted along it
Protocol: as §1

BRAF(V600E) = molecular target: T26, BRAF(V600E) (Homo sapiens, UniProt P15056, V600E)
T26 construct: purchased Eurofins DiscoverX (KINOMEscan)
Protocol: as §1

MYO3A = molecular target: T27, MYO3A (Homo sapiens, UniProt Q8NEV4)
T27 construct: purchased Eurofins DiscoverX (KINOMEscan)
Protocol: as §1

ERBB2 = molecular target: T28, ERBB2 (Homo sapiens, UniProt P04626)
T28 construct: purchased Eurofins DiscoverX (KINOMEscan)
T28 sequence (P04626 23-1255): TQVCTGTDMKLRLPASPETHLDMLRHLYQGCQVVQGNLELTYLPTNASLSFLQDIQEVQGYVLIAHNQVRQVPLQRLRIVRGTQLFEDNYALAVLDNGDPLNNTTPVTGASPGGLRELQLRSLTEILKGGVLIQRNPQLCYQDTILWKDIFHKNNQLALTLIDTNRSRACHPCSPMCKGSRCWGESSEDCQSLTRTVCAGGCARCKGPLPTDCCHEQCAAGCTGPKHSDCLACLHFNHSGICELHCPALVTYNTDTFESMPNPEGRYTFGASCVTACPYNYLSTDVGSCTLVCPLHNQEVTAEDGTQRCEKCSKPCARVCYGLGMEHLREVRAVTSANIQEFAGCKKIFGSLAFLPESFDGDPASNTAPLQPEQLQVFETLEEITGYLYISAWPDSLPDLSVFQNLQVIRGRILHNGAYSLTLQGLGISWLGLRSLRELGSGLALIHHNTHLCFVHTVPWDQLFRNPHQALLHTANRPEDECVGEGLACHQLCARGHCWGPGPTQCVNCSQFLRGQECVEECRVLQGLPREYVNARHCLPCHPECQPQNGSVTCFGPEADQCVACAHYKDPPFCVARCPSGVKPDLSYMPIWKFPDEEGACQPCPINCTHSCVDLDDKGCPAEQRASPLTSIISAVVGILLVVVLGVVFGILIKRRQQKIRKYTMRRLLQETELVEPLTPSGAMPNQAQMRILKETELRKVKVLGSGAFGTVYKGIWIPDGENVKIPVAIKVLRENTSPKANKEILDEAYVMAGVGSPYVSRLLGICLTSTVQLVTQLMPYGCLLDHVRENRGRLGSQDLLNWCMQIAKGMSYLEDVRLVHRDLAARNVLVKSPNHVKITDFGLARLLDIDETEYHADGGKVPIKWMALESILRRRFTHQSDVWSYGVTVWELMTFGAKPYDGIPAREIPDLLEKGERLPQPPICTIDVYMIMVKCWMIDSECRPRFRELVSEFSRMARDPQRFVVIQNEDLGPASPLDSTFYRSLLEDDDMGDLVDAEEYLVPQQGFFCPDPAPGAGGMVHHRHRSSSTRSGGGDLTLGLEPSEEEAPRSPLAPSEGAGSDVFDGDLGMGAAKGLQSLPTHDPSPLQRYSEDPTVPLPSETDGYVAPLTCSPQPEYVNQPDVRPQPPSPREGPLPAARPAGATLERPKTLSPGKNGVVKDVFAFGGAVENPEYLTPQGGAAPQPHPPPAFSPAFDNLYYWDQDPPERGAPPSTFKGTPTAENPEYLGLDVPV
Protocol: as §1

NEK10 = molecular target: T29, NEK10 (Homo sapiens, UniProt Q6ZWH5)
T29 construct: purchased Eurofins DiscoverX (KINOMEscan)
Protocol: as §1

ACVR2B = molecular target: T30, ACVR2B (Homo sapiens, UniProt Q13705)
T30 construct: purchased Eurofins DiscoverX (KINOMEscan)
Protocol: as §1

SRPK3 = molecular target: T31, SRPK3 (Homo sapiens, UniProt Q9UPE1)
T31 construct: purchased Eurofins DiscoverX (KINOMEscan)
Protocol: as §1

ACVR1 = molecular target: T32, ACVR1 (Homo sapiens, UniProt Q04771)
T32 construct: purchased Eurofins DiscoverX (KINOMEscan)
Protocol: as §1

ZAP70 = molecular target: T33, ZAP70 (Homo sapiens, UniProt P43403)
T33 construct: purchased EuroFins DiscoverX (Fremont, CA, USA)
Protocol: as §1

JNK2 = molecular target: T34, JNK2 (Homo sapiens, UniProt P45984)
T34 construct: purchased Eurofins DiscoverX (KINOMEscan)
Protocol: as §1

NEK3 = molecular target: T35, NEK3 (Homo sapiens, UniProt P51956)
T35 construct: purchased Eurofins DiscoverX (KINOMEscan)
Protocol: as §1

FLT1 = molecular target: T36, FLT1 (Homo sapiens, UniProt P17948)
T36 construct: purchased Eurofins DiscoverX (KINOMEscan)
Protocol: as §1

RIPK5 = molecular target: T37, RIPK5 (Homo sapiens, UniProt Q6XUX3)
T37 construct: purchased Eurofins DiscoverX (KINOMEscan)
Protocol: as §1

YANK3 = molecular target: T38, YANK3 (Homo sapiens, UniProt Q86UX6)
T38 construct: purchased EuroFins DiscoverX (Fremont, CA, USA)
Protocol: as §1

p38-alpha = molecular target: T39, p38-alpha (Homo sapiens, UniProt Q16539)
T39 construct: purchased Eurofins DiscoverX (KINOMEscan)
Protocol: as §1

SGK = molecular target: T40, SGK (Homo sapiens, UniProt O00141)
T40 construct: purchased Eurofins DiscoverX (KINOMEscan)
T40 sequence (O00141 whole entry): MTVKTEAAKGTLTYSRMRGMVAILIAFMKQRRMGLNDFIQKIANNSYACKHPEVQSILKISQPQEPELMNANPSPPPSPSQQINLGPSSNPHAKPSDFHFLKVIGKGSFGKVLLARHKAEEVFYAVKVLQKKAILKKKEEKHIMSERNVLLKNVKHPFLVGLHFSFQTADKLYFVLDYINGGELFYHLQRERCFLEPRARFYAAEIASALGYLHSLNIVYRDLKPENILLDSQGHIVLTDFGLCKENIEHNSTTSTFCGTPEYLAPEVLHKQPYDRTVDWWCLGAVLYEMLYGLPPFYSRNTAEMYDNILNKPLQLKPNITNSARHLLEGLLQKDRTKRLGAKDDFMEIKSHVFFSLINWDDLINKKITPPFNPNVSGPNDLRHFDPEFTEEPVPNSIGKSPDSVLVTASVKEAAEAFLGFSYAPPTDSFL
Protocol: as §1

EPHB4 = molecular target: T41, EPHB4 (Homo sapiens, UniProt P54760)
T41 construct: purchased Eurofins DiscoverX (KINOMEscan)
Protocol: as §1

CAMKK2 = molecular target: T42, CAMKK2 (Homo sapiens, UniProt Q96RR4)
T42 construct: purchased Eurofins DiscoverX (KINOMEscan)
T42 sequence (Q96RR4 whole entry): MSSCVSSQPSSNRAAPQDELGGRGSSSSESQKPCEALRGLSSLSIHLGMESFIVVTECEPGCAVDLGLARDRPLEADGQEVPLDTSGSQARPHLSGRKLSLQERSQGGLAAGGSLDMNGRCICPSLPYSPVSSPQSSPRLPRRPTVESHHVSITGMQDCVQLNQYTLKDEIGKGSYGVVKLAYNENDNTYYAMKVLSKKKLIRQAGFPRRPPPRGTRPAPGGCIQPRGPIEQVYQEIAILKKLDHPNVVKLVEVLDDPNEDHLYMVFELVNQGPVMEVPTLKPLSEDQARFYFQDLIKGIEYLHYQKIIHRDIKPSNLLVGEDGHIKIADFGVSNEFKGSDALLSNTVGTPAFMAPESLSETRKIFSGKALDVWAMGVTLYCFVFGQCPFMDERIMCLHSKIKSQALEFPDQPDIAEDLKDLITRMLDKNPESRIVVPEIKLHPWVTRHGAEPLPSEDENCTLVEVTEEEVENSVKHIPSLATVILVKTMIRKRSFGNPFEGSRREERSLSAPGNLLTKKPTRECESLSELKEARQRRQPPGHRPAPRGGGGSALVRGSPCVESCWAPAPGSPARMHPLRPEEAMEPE
Protocol: as §1

Brc1ccc2nccc(Nc3ccc4cn[nH]c4c3)c2c1 [Compound 35, 6-Bromo-N-(1H-indazol-6-yl)quinolin-4-amine]
activity at 1 µM (LCK): 100%
activity at 1 µM (ABL1-nonphosphorylated): 88%
activity at 1 µM (BUB1): 93%
activity at 1 µM (FLT3(R834Q)): 83%
activity at 1 µM (PIK3CA(M1043I)): 99%
activity at 1 µM (KIT(D816V)): 100%
activity at 1 µM [1]: 66%
activity at 1 µM [2]: 77%
activity at 1 µM (SIK): 100%
activity at 1 µM (SRPK1): 100%
activity at 1 µM (CSF1R-autoinhibited): 100%
activity at 1 µM (MLCK): 100%
activity at 1 µM (EPHB3): 100%
activity at 1 µM (SgK110): 100%
activity at 1 µM [3]: 100%
activity at 1 µM (DYRK2): 100%
activity at 1 µM (PIK3C2B): 100%
activity at 1 µM (EGFR(G719C)): 83%
activity at 1 µM (FGR): 100%
activity at 1 µM (PDGFRA): 100%
activity at 1 µM (ULK1): 91%
activity at 1 µM (NEK4): 100%
activity at 1 µM (CDC2L5): 73%
activity at 1 µM (CAMK1D): 100%
activity at 1 µM (KIT(V559D,V654A)): 100%
activity at 1 µM (BRAF(V600E)): 80%
activity at 1 µM (MYO3A): 100%
activity at 1 µM (ERBB2): 100%
activity at 1 µM (NEK10): 100%
activity at 1 µM (ACVR2B): 36%
activity at 1 µM (SRPK3): 100%
activity at 1 µM (ACVR1): 97%
activity at 1 µM (ZAP70): 100%
activity at 1 µM (JNK2): 100%
activity at 1 µM (NEK3): 89%
activity at 1 µM (FLT1): 100%
activity at 1 µM (RIPK5): 100%
activity at 1 µM (YANK3): 100%
activity at 1 µM (p38-alpha): 100%
activity at 1 µM (SGK): 100%
activity at 1 µM (EPHB4): 100%
activity at 1 µM (CAMKK2): 100%
